From paper PMC3874184 (Nucleic Acids Research, 2013)

How the values were obtained:
spTrm10 (spTrm10_FL) [1] = biological target: T1, spTrm10 (spTrm10_FL) (Schizosaccharomyces pombe, UniProt O14214); experiment: X-ray crystal structure, […] Å; details: SAM-binding pocket in C-terminal trefoil knot; 1:3 protein:SAH
T1 sequence (O14214 1-304): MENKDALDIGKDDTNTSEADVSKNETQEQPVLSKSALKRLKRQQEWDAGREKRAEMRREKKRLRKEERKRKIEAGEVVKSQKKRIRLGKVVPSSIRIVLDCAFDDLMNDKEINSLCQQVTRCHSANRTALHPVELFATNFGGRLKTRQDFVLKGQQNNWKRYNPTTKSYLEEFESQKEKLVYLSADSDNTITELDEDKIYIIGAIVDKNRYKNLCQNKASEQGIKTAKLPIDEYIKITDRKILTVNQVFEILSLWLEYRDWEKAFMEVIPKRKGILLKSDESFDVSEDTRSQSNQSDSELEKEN

scTrm10_84 = biological target: T2, scTrm10_84 (Saccharomyces cerevisiae, UniProt Q12400); experiment: X-ray crystal structure, […] Å; details: SAM-binding pocket in C-terminal trefoil knot; 1:3 protein:SAH
T2 sequence (Q12400 84-276): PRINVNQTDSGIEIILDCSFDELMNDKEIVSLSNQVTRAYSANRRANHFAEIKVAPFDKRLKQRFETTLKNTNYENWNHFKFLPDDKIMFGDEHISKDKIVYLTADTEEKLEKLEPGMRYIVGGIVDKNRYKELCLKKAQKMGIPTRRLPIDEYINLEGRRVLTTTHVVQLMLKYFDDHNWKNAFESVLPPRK

spTrm10 (spTrm10_FL) [2] = biological target: T1, spTrm10 (spTrm10_FL); experiment: biochemical
spTrm10 (spTrm10_FL) [3] = biological target: spTrm10 (spTrm10_FL) (Schizosaccharomyces pombe, UniProt O14214, N209A); experiment: biochemical
Sequence of spTrm10 (spTrm10_FL) (Schizosaccharomyces pombe, UniProt O14214, N209A) (O14214 whole entry N209A): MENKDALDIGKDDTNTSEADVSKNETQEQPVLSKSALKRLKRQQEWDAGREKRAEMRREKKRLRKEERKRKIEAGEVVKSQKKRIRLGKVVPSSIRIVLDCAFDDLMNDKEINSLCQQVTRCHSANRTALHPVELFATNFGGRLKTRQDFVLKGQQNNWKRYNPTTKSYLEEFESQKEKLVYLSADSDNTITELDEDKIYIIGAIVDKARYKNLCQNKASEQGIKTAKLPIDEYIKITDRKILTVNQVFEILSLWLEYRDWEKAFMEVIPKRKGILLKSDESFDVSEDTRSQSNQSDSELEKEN

| X-ray crystal structure, 2.04 Å (spTrm10 (spTrm10_FL) [1]) [JWH for spTrm10-FL-SAH] | X-ray crystal structure, 1.76 Å (scTrm10_84) [JWJ for scTrm10_84-SAH] | Kd (spTrm10 (spTrm10_FL) [2]) [µM] | Kd (spTrm10 (spTrm10_FL) [3]) [µM] | SMILES |
| --- | --- | --- | --- | --- |
| 4 | 4 | – | – | Nc1ncnc2c1ncn2[C@@H]1O[C@H](CSCC[C@H](N)C(=O)O)[C@@H](O)[C@H]1O [SAH] |
| – | – | 4.46 | 83.3 | C[S+](CC[C@H](N)C(=O)O)C[C@H]1O[C@@H](n2cnc3c(N)ncnc32)[C@H](O)[C@@H]1O (stereo partly shown) [SAM] |
